For orientation: EC50 means the concentration at which the effect is half-maximal. By Ki is commonly meant the equilibrium dissociation constant of an inhibitor or competing ligand from its target. A lower Ki goes with a stronger hold on the target. A word on the inhibition: it is the percentage by which the read-out fell short of the control.

The values that follow come from ChEMBL document CHEMBL4732144, “Discovery of a true bivalent dopamine D receptor agonist” (Eur J Med Chem, 2021).

The source made the active and inactive calls. The calls are words filed in the database; no cut-off is given here. A value given as a limit tells only on which side of the number the result lay.

Assay [1] deals with T1, D(2) dopamine receptor (Homo sapiens, UniProt P14416). The experiment in a line: Agonist activity at human D2R isoform 2 stably expressed in HEK293 cells assessed as inhibition of forskolin-induced increase of cAMP accumulation preincubated for 10 mins followed by forskolin addition by Glosensor cAMP reagent based luminescence assay. It counts as functional, cell-based. (cAMP levels reflect the balance of adenylyl cyclase and phosphodiesterase activity.)

The target of assay [2] is T1, D(2) dopamine receptor. Description: Displacement of [3H]raclopride from human D2R isoform 2 stably expressed in HEK293 cell membranes measured after 1 hr by liquid scintillation counting method relative to IndBipAlk Ki. As to conditions: Membrane. On the technique in general: In a radioligand displacement assay an active substance lowers the binding of a labelled ligand.

The target in assay [3] is T1, D(2) dopamine receptor. Description: Agonist activity at human D2R isoform 2 stably expressed in HEK293 cells assessed as inhibition of forskolin-induced increase of cAMP accumulation preincubated for 10 mins followed by forskolin addition by Glosensor cAMP reagent based luminescence assay relative to IndBipAlk EC50. Format: functional, cell-based.
The target in assay [4] is T1, D(2) dopamine receptor. The experiment in a line: Displacement of [3H]raclopride from human D2R isoform 2 stably expressed in HEK293 cell membranes measured after 1 hr by liquid scintillation counting method. More on the design: species or system Membrane.
In assay [5] the target is T1, D(2) dopamine receptor. Description: Displacement of [3H]raclopride from human D2R isoform 2 stably expressed in HEK293 cell membranes at 1 uM measured after 1 hr by liquid scintillation counting method. As to conditions: Membrane, filed as agonist.
Assay [6] has as its target T1, D(2) dopamine receptor. Description: Agonist activity at human D2R isoform 2 stably expressed in HEK293 cells assessed as inhibition of forskolin-induced increase of cAMP accumulation preincubated for 10 mins followed by forskolin addition by Glosensor cAMP reagent based luminescence assay relative to IndAlk EC50. Format: functional, cell-based.
In assay [7] the target is T1, D(2) dopamine receptor. The experiment in a line: Displacement of [3H]raclopride from human D2R isoform 2 stably expressed in HEK293 cell membranes measured after 1 hr by liquid scintillation counting method relative to IndAlk Ki. As to conditions: Membrane.

T1 sequence (P14416 whole entry, canonical isoform): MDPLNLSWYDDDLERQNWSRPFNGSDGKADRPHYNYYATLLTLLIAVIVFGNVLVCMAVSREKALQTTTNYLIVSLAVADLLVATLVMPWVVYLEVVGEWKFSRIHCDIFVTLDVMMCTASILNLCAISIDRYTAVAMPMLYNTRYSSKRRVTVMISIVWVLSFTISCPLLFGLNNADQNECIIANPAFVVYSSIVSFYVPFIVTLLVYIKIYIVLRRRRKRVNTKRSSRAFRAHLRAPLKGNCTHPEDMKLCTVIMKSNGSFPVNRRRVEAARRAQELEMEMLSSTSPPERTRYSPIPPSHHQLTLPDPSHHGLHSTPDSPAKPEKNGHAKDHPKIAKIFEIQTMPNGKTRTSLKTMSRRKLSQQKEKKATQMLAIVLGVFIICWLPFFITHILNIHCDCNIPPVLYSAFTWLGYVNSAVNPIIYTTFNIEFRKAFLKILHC

Turning to `CCCN(CCCCNC(=O)c1ccc(-c2ccc(OCc3cn(CCOCCOCCOCCn4cc(COc5ccc(-c6ccc(C(=O)NCCCCN(CCC)C7Cc8ccccc8C7)cc6)cc5)nn4)nn3)cc2)cc1)C1Cc2ccccc2C1`, on D(2) dopamine receptor [1], the EC50 stood at 292 nM. For the same compound, the Ratio Ki at D(2) dopamine receptor [2] stood at 3.6. Also, on D(2) dopamine receptor [3], the Ratio EC50 is 1.1. On D(2) dopamine receptor [4], the affinity corresponds to a Ki of 270 nM. Also, the inhibition entry at D(2) dopamine receptor [5] is “Active”.

For `CCCN(CCCCc1cn(CCOCCOCCOCCn2cc(CCCCN(CCC)C3Cc4ccccc4C3)nn2)nn1)C1Cc2ccccc2C1`, the EC50 at D(2) dopamine receptor [1] was 7.2 nM. Further, at D(2) dopamine receptor [6], the Ratio EC50 was 0.5. Also, at D(2) dopamine receptor [4], affinity was put at a Ki of 73 nM. Further, the inhibition result at D(2) dopamine receptor [5] was “Active”. Also, the Ratio Ki on D(2) dopamine receptor [7] amounted to 2.6.

In the case of `C#CCCCCN(CCC)C1Cc2ccccc2C1`, the EC50 at D(2) dopamine receptor [1] worked out at 3.4 nM. This compound also came in with a Ki at D(2) dopamine receptor [4] of 189 nM.

For `CCCN(CCCCNC(=O)c1ccc(-c2ccc(OCc3cn(CCOCCOCCOCCOCCOCCn4cc(COc5ccc(-c6ccc(C(=O)NCCCCN(CCC)C7Cc8ccccc8C7)cc6)cc5)nn4)nn3)cc2)cc1)C1Cc2ccccc2C1`, at D(2) dopamine receptor [1], the EC50 was 65 nM. For the same compound, the Ratio Ki on D(2) dopamine receptor [2] was 16.4. In addition, at D(2) dopamine receptor [3], the Ratio EC50 amounted to 4.9. The Ki on D(2) dopamine receptor [4] came to 59 nM. Also, the inhibition at D(2) dopamine receptor [5] was over 80%.

Consider `CCCN(CCCCc1cn(CCOCCOCCOCCOCCOCCn2cc(CCCCN(CCC)C3Cc4ccccc4C3)nn2)nn1)C1Cc2ccccc2C1`, for which, on D(2) dopamine receptor [1], the EC50 was determined as 3.2 nM. Besides, the Ratio EC50 at D(2) dopamine receptor [6] amounted to 1.1. This compound also returned an inhibitory constant (Ki) at D(2) dopamine receptor [4] of 48 nM. Moreover, the inhibition entry at D(2) dopamine receptor [5] was “Active”. For the same compound, the Ratio Ki at D(2) dopamine receptor [7] worked out at 3.9.

As to `CCCN(CCCCNC(=O)c1ccc(-c2ccc(OCc3cn(CCOCCOCCOCCOCCn4cc(COc5ccc(-c6ccc(C(=O)NCCCCN(CCC)C7Cc8ccccc8C7)cc6)cc5)nn4)nn3)cc2)cc1)C1Cc2ccccc2C1`, on D(2) dopamine receptor [1], the EC50 came to 542 nM. The Ratio Ki on D(2) dopamine receptor [2] was 3.9. Moreover, on D(2) dopamine receptor [3], the Ratio EC50 turned out to be 0.6. For the same compound, at D(2) dopamine receptor [4], the Ki stood at 250 nM. Further, on D(2) dopamine receptor [5], the inhibition result was “Active”.

Take `C#CCOc1ccc(-c2ccc(C(=O)NCCCCN(CCC)C3Cc4ccccc4C3)cc2)cc1`: the 50% effective concentration (EC50) on D(2) dopamine receptor [1] was determined as 321 nM. Also, the Ki at D(2) dopamine receptor [4] came out at 970 nM.

Regarding `CCCN(CCCCc1cn(CCOCCOCCOCCOCCn2cc(CCCCN(CCC)C3Cc4ccccc4C3)nn2)nn1)C1Cc2ccccc2C1`, at D(2) dopamine receptor [1], the EC50 turned out to be 9.4 nM. In addition, the Ratio EC50 at D(2) dopamine receptor [6] was found to be 0.4. The Ki at D(2) dopamine receptor [4] is 66 nM. Also, on D(2) dopamine receptor [5], the inhibition result is “Active”. Moreover, the Ratio Ki at D(2) dopamine receptor [7] is 2.9.
